Patent US20070004680A1, “Compositions and methods for modulating gated ion channels” (PainCeptor Pharma Corporation, priority 2004, published 2007)
pIC50: −log10 of the molar value.

Target: T1, ASIC1a (Rattus norvegicus, UniProt P55926)
T1 construct: expressed in transfected cells; host or cells: HEK cells according to b213
T1 sequence (P55926 1-526): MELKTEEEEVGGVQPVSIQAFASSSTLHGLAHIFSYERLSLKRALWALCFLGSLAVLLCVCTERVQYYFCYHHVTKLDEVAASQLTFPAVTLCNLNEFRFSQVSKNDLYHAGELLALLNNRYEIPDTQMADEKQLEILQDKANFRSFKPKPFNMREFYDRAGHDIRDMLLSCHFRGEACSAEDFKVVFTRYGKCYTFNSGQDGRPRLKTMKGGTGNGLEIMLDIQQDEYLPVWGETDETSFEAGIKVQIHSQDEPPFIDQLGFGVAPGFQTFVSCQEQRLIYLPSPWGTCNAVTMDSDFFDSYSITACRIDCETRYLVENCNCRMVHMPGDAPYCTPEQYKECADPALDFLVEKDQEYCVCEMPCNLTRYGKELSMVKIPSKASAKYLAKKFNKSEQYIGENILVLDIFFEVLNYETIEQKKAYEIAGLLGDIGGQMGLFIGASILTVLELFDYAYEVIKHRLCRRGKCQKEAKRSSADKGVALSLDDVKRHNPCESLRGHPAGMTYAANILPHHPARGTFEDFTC
Test: whole cell patch clamp electrophysiology, ASIC1a
Assay type: cell-based
Details: for Fraction of Control, ASIC1a - pH Dependency: 10 μM compound
Description: Another example of an in vitro assessment method consists of using mammalian heterologous expression systems, which are known to the skilled in the art, and include a variety of mammalian cell lines such as COS, HEK, e.g., HEK293and/or CHO, cells. Cell lines are transfected with gated ion channel(s) and used to perform electrophysiology as follows:
All experiments are performed at room temperature (20-25° C.) in voltage clamp using conventional whole cell patch clamp methods (Neher, E., et al. (1978) Pfluegers Arch 375:219-228).
The amplifier used is the EPC-9 (HEKA-electronics, Lambrect, Germany) run by a Macintosh G3 computer via an ITC-16 interface. Experimental conditions are set with the Pulse-software accompanying the amplifier. Data is low pass filtered and sampled directly to hard-disk at a rate of 3 times the cut-off frequency.
Pipettes are pulled from borosilicate glass using a horizontal electrode puller (Zeitz-lnstrumente, Augsburg, Germany). The pipette resistances are 2-3 MOhms in the salt solutions used in these experiments. The pipette electrode is a chloridized silver wire, and the reference is a silver chloride pellet electrode (In Vivo Metric, Healdsburg, USA) fixed to the experimental chamber. The electrodes are zeroed with the open pipette in the bath just prior to sealing.
Coverslips with the cells are transferred to a 15 μl experimental chamber mounted on the stage of an inverted microscope (IMT-2, Olympus) supplied with Nomarski optics. Cells are continuously superfused with extracellular saline at a rate of 2.5 ml/min. After giga-seal formation, the whole cell configuration is attained by suction. The cells are held at a holding voltage of −60 mV and at the start of each experiment the current is continuously measured for 45 s to ensure a stable baseline. Solutions of low pH (<7) are delivered to the chamber through a custom-made gravity-driven flowpipe, the tip of which is placed approximately 50 μm from the cell. Application is triggered when the tubing connected to the flowpipe is compressed by a valve controlled by the Pulse-software. Initially, low pH (in general, pH 6.5) is applied for 1 s every 45 s. The sample interval during application is 550 μs. After stable responses are obtained, the extracellular saline as well as the low-pH solution are switched to solutions containing the compound to be tested. The compound is present until responses of a repeatable amplitude are achieved. Current amplitudes are measured at the peak of the responses, and effect of the compounds is calculated as the amplitude at compound equilibrium divided by the amplitude of the current evoked by the pulse just before the compound was included.
The following salt solutions are used: extracellular solution (mM): NaCl (140), KCl (4), CaCl2 (2), MgCl2 (4), HEPES (10, pH 7.4); intracellular solution (mM): KCl (120), KOH (31), MgCl2 (1.785), […] (10), HEPES (10, pH 7.2). In general, compounds for testing are dissolved in 50% DMSO at 500 fold the highest concentration used.
The cDNA for ASIC1a and ASIC3 can be cloned from rat poly(A)^+ mRNA and put into expression vectors according to Hesselager et al. (J Biol Chem. 279(12):11006-15 2004). All constructs are expressed in CHO-K1 cells (ATCC no. CCL61). CHO-K1 cells are cultured at 37° C. in a humidified atmosphere of 5% CO2 and 95% air and passaged twice every week. The cells are maintained in DMEM (10 mM HEPES, 2 mM glutamax) supplemented with 10% fetal bovine serum and 2 mM L-proline (Life Technologies). […]

In the case of `C=CC1CN2CCC1CC2[C@@H](OC(=O)CCC1CCCC1)c1ccnc2ccccc12` (stereo partly drawn) [Compound A], the “Fraction of Control, ASIC1a - pH Dependency” value (pH 5.0) was “greater than .85”, the “Fraction of Control, ASIC1a - pH Dependency” value (pH 6.0) was “greater than .85” and the pIC50 (patch clamp, HEK cells, pH 6.5) was 4.64 to 4.77.
